# Reference: patent publication US20180148418A1, “AMIDO-SUBSTITUTED CYCLOHEXANE DERIVATIVES” (Bayer Pharma Aktiengesellschaft, priority 2015, published 2018)
# Counter-ions that a name gives are not always drawn.
# Test system: wildtype Wnt signaling cascade
# Assay: HEK293 TOP assay (Super TopFlash luciferase reporter, Wnt-3a stimulated)
# Type: cell-based
# Conditions: Homo sapiens, HEK293, 16 h, HEK293 TOP reporter cells, Wnt3a at EC50, 16 hours
# In short: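 Compound series (50 μM down to 15 nM, 3.16-fold) diluted from DMSO 50-fold into CAFTY buffer, pH 7.4, 2 mM Ca^2+, 0.01% BSA, applied to Wnt-3a-stimulated HEK293 TopFlash and FOP reporter lines in parallel. Cells seeded 10000/well 24 h before; luciferase signal measured.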
row,IC50,SMILES
1,32 nM,"O=C(N[C@H]1CC[C@@]2(CCN(c3ccc(F)cc3Cl)C2=O)CC1)c1cnn2ccc(N3CCNCC3)nc12 [Example 226, N-[(trans)-2-(2-chloro-4-fluorophenyl)-1-oxo-2-azaspiro[4.5]dec-8-yl]-5-(piperazin-1-yl)pyrazolo[1,5-a]pyrimidine-3-carboxamide hydrochloric acid salt]"
2,6.1 nM,"CN1CC2(C1)CN(C(=O)c1nc[nH]c1C(=O)N[C@H]1CC[C@@]3(CCN(c4ccc(F)cc4Cl)C3=O)CC1)C2 [Example 185, N-[(trans)-2-(2-chloro-4-fluorophenyl)-1-oxo-2-azaspiro[4.5]dec-8-yl]-4-[(6-methyl-2,6-diazaspiro[3.3]hept-2-yl)carbonyl]-1H-imidazole-5-carboxamide]"
3,2.1 nM,"Cc1ccnc2c(C(=O)N[C@H]3CC[C@@]4(CCN(c5ccc(F)cc5Cl)C4=O)CC3)cnn12 [Example 222, N-[(trans)-2-(2-chloro-4-fluorophenyl)-1-oxo-2-azaspiro[4.5]dec-8-yl]-7-methylpyrazolo[1,5-a]pyrimidine-3-carboxamide]"
4,500 nM,"O=C(N[C@H]1CC[C@H](C(=O)Nc2ccc(F)cc2Cl)CC1)c1cnc2ccccn12 [Example 206, N-{trans-4-[(2-chloro-4-fluorophenyl)carbamoyl]cyclohexyl}imidazo[1,2-a]pyridine-3-carboxamide]"
